Experiment [1] deals with T1, Polyunsaturated fatty acid 5-lipoxygenase (Homo sapiens, UniProt P09917).
T1 sequence (P09917 whole entry): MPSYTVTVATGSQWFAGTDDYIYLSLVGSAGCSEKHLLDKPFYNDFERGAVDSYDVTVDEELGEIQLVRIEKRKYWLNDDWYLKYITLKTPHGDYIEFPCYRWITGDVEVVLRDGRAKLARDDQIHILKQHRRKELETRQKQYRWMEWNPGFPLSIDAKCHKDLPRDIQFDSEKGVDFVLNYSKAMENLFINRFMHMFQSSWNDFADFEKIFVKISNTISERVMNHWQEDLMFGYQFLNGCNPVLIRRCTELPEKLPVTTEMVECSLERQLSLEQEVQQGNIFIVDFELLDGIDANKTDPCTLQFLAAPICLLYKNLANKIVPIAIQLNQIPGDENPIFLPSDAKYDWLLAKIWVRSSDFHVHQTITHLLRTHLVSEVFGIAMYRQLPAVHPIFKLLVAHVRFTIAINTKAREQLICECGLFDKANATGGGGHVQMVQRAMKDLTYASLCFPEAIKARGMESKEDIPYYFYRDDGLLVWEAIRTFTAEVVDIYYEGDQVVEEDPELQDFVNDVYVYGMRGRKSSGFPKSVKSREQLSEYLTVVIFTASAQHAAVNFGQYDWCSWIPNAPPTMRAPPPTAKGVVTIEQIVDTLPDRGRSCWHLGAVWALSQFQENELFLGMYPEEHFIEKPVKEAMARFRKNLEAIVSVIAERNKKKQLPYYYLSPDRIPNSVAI
Briefly: Inhibition of 5-lipoxygenase in human neutrophil preincubated for 15 mins before substrate arachidonic acid addition measured after 10 mins by HPLC method.

Experiment [2] has as its target T1, Polyunsaturated fatty acid 5-lipoxygenase. Description: Inhibition of human recombinant 5-lipoxygenase in cell-free system preincubated for 10 mins before substrate arachidonic acid addition measured after 10 mins by RP-HPLC method.
The target in a further experiment is T2, Prostaglandin E synthase (Homo sapiens, UniProt O14684).
T2 sequence (O14684 whole entry): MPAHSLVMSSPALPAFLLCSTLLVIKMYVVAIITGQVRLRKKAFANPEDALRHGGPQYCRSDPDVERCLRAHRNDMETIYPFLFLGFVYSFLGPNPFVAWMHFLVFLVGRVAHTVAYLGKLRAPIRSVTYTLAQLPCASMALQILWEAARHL
Briefly: Inhibition of mPGES1 in IL-1beta-stimulated human A549 cell assessed as inhibition of PGE2 production preincubated for 15 mins before substrate addition by RP-HPLC method.

For experiment [3], the target named is T3, Polyunsaturated fatty acid 5-lipoxygenase (Homo sapiens) (UniProt P09917).
T3 sequence (whole entry): T1 sequence (P09917 whole entry)
Briefly: Inhibition of 5-lipoxygenase in human neutrophil assessed as remaining activity at 10 uM preincubated for 15 mins before substrate arachidonic acid addition measured after 10 mins by HPLC method.

The target in experiment [4] is T3, Polyunsaturated fatty acid 5-lipoxygenase (Homo sapiens). Description: Inhibition of human recombinant 5-lipoxygenase in cell-free system assessed as remaining activity at 10 uM preincubated for 10 mins before substrate arachidonic acid addition measured after 10 mins by RP-HPLC method.
Experiment [5] addresses T4, Prostaglandin E synthase (Homo sapiens) (UniProt O14684).
T4 sequence (whole entry): T2 sequence (O14684 whole entry)
Description: Inhibition of mPGES1 in IL-1beta-stimulated human A549 cell assessed as remaining activity measuring of PGE2 level at 10 uM preincubated for 15 mins before substrate addition by RP-HPLC method.

The species named for the next experiment is Rattus norvegicus. Briefly: Inhibition of mPGES1 in rat microsomal membranes assessed as inhibition of PGE2 production at 10 uM after 40 seconds by enzyme immunoassay. In kind it is microsomes. The note with it: Microsome.

Usually pIC50 stands for −log10 of the IC50, conventionally taken in molar units. What is called inhibition is how much of the control response was suppressed.

pIC50: −log10 of the molar value.

Regarding `O=C(O)c1ccc(Cn2cc(-c3ccc(-c4ccccc4COc4cc(C(F)(F)F)ccc4Cl)cc3)nn2)cc1`, the pIC50 in experiment [1] is 5.70; in experiment [2], 5.83; at Prostaglandin E synthase, 6.00.
For `Nc1ccc(-c2ccc(-c3cn(Cc4ccc(C(=O)O)cc4[N+](=O)[O-])nn3)cc2)cc1`, the negative logarithm of the IC50 (pIC50) (in experiment [1]; in experiment [2]; at Prostaglandin E synthase) was < 5.00 each time. Also, the values for the Activity in experiment [3], in experiment [4] and in experiment [5] were 100%, 63.5% and 65.5%, respectively.
`O=C(O)c1ccc(Cn2cc(-c3ccc(-c4cccs4)cc3)nn2)c([N+](=O)[O-])c1`: the pIC50 is < 5.00 in experiment [1], < 5.00 in experiment [2] and 5.26 on Prostaglandin E synthase. In addition, the Activity in experiment [3] was 89.7%; in experiment [4] it was 52.2%.
With `COc1cc(-c2ccc(-c3cn(Cc4ccc(C(=O)O)cc4[N+](=O)[O-])nn3)cc2)cc(OC)c1OC`, the pIC50 (in experiment [1]; in experiment [2]; at Prostaglandin E synthase) was < 5.00 throughout. Besides, the Activity was 90.2% in experiment [3], 64.3% in experiment [4] and 54.3% in experiment [5].
As for `O=C(O)c1ccc(Cn2cc(-c3ccc(-c4ccccc4COc4cc(C(F)(F)F)ccc4Cl)cc3)nn2)c([N+](=O)[O-])c1`, the pIC50 in experiment [1] was 5.28; in experiment [2] it was 5.70; on Prostaglandin E synthase it was 5.92.
As for `O=C(O)c1ccc(Cn2cc(-c3ccc(-c4ccc(O)cc4)cc3)nn2)c([N+](=O)[O-])c1`, the pIC50 in experiment [1] is < 5.00; in experiment [2], 5.17; on Prostaglandin E synthase it was < 5.00. Further, the Activity in experiment [3] came out at 108%; in experiment [5] it was 74.2%.
Consider `CN(C)c1ccc2cc(S(=O)(=O)Nc3ccc(-c4ccc(-c5cn(Cc6ccc(C(=O)O)cc6[N+](=O)[O-])nn5)cc4)cc3)ccc2c1`, for which the results for the pIC50 (in experiment [1]; in experiment [2]; on Prostaglandin E synthase) were < 5.00, 5.21 and < 5.00, respectively. Moreover, the Activity in experiment [3] is 96.5%; in experiment [5], 72.5%.
Consider `CC(C)c1ccc2c(c1)c(SC(C)(C)C)c(CC(C)(C)C(=O)O)n2Cc1ccc(Cl)cc1`, for which, in the experiment listed under Rattus norvegicus, the inhibition was determined as 82%.
Regarding `O=C(O)c1cccc(-c2ccc(-c3cn(Cc4ccc(C(=O)O)cc4[N+](=O)[O-])nn3)cc2)c1`, the pIC50 (in experiment [1]; in experiment [2]; on Prostaglandin E synthase) was < 5.00 each time. Moreover, the Activity turned out to be 124% in experiment [3], 74.7% in experiment [4] and 82.1% in experiment [5].
On to `O=C(O)c1ccc(Cn2cc(-c3ccc(-c4cccc(C(=O)N5CCOCC5)c4)cc3)nn2)c([N+](=O)[O-])c1`, for which the pIC50 (in experiment [1]; in experiment [2]; on Prostaglandin E synthase) was < 5.00 each time. For the same molecule, the Activity was 125% in experiment [3], 62.7% in experiment [4] and 88.9% in experiment [5].
Take `O=C(O)c1ccc(Cn2cc(-c3ccc(-c4ccccc4C(=O)O)cc3)nn2)c([N+](=O)[O-])c1`: the pIC50 (in experiment [1]; in experiment [2]; at Prostaglandin E synthase) was < 5.00 throughout. The Activity is 65.9% in experiment [3], 75.3% in experiment [4] and 94.1% in experiment [5].
For `O=C(O)c1ccc(-c2ccc(-c3cn(Cc4ccc(C(=O)O)cc4[N+](=O)[O-])nn3)cc2)cc1`, the values for the pIC50 (in experiment [1]; in experiment [2]; at Prostaglandin E synthase) were < 5.30, < 5.30 and < 5.00, respectively. Besides, in experiment [5], the Activity came out at 93%.
For `COc1ccc(-c2ccc(-c3cn(Cc4ccc(C(=O)O)cc4[N+](=O)[O-])nn3)cc2)cc1CN1CCOCC1`, the negative-log IC50 (pIC50) (in experiment [1]; in experiment [2]; at Prostaglandin E synthase) was < 5.00 in each case. Also, the Activity is 111% in experiment [3], 84.9% in experiment [4] and 87.4% in experiment [5].
On to `O=C(O)c1ccc(S(=O)(=O)n2cc(-c3ccc(-c4ccccc4COc4cc(C(F)(F)F)ccc4Cl)cc3)nn2)cc1`, for which the figures for the pIC50 (in experiment [1]; in experiment [2]; at Prostaglandin E synthase) were 5.92, 5.71 and < 5.00, respectively. The Activity in experiment [5] was 78.6%.
Turning to `Nc1cc(C(=O)O)ccc1Cn1cc(-c2ccc(-c3ccccc3COc3cc(C(F)(F)F)ccc3Cl)cc2)nn1`, the pIC50 in experiment [1] was 5.68; in experiment [2] it was 6.05; on Prostaglandin E synthase, 6.17.
Take `O=C(O)c1ccc(Cn2cc(-c3ccc(-c4cccc(O)c4)cc3)nn2)c([N+](=O)[O-])c1`: the pIC50 (in experiment [1]; in experiment [2]; on Prostaglandin E synthase) was < 5.00 each time. Also, the Activity in experiment [3] was determined as 114%; in experiment [4], 80.2%; in experiment [5], 55.6%.
Regarding `O=C(O)c1ccc(Cn2cc(-c3ccc(-c4ccccc4)cc3)nn2)c([N+](=O)[O-])c1`, on Prostaglandin E synthase, the pIC50 is > 5.49.

(Values after ChEMBL document CHEMBL2040712, “Design and synthesis of a second series of triazole-based compounds as potent dual mPGES-1 and 5-lipoxygenase inhibitors” (Eur J Med Chem, 2012).)
